# Measured values from patent US20180353512A1, “COMBINATION THERAPIES FOR TREATING B-CELL MALIGNANCIES” (GILEAD SCIENCES, INC., priority 2015, published 2018).
# Legend:
# OCI-LY10 cells = test: Apoptosis assay, Annexin V flow cytometry; type: cell-based; conditions: 48 h, Idelalisib = 156 nM, Compound B = 8 nM, DMSO 29
# Method: (§1) Apoptosis of Idelalisib in combination with Compound B in two DLBCL cell lines, OCI-Ly10 and TMD-8, was also measured. Cells plated at 0.2×10^6 cells/mL in RPMI 1640 supplemented with 20% […] and 1% penicillin and streptomycin. Cells were treated with compound, 156 nM Idelalisib, Compound B and the combination thereof. Control received DMSO at 0.2%. Cells were then incubated at 37 C for 48 hours. Apoptosis was measured using Annexin V/FITC kit, and analyzed by flow cytometry. Apoptosis was also measured using or Annexin V/7ADD kit (Beckman Coulter). Fluorescence was measured by flow cytometry using BD LSRII and the results were analyzed using FACSDiva.
# TMD-8 cells = test: Apoptosis assay, Annexin V flow cytometry; type: cell-based; conditions: 48 h, Idelalisib = 156 nM, Compound B = 8 nM, DMSO 21
# Method: as §1
# pERK T202/Y204 = test: Western Blot of TMD-8 Ibrutinib resistant lines; type: cell-based; conditions: idelalisib 420 nM, Compound B 320 nM
# Method: Western Blot samples were prepared by lysing 10^6 cells for 30 minutes in 150 μL ice-cold lysis buffer. Protease Inhibitor Cocktail (Roche Diagnostics Corp), and phosphatase inhibitor sets 1 and 2 (EMD Millipore) were also added to the lysis buffer (Cell Signaling Technology). Cells were centrifuged at 12.5 g for 10 minutes at 4° C.; supernatant was collected and transferred to new tube. Sample buffer was added to each lysate, and then boiled at 99° C. for 5 minutes. Protein was loaded into an SDS-PAGE gel and run for 2 h at 125V. After electrophoresis, gel was transferred to Immobilon-F membrane using the X Cell Blot. The membrane was then blocked for 1 h at room temperature in blocking buffer and incubated overnight with primary antibodies diluted in a blocking buffer. The following day, the membranes were washed 3× (5 min each) with TBST; secondary antibodies were added and membrane was incubated for 45 minutes at room temperature, followed by 3×TBST (5 min each). Blots were read using Licor Imager. Primary antibodies included p-AKT (S473), p-BTK (Y223), BTK, p-ERK (T202/Y204), ERK, and actin (Cell Signaling Technologies), and secondary antibodies included IRDye-conjugated anti-mouse and anti-rabbit antibodies; LI-COR. Band intensity was measured using LI-COR imager and LI-COR Odyssey software.
# Total protein expression levels and phosphorylation of PI3K, MAPK, BTK and NF-κB components were determined by Western Blot or Peggy Sue. Cells were treated with idelalisib (420 nM), Compound B (320 nM) or in combination. Protein expression level and phosphoproteomics were determined using Western Blot (p-ERK 1/2, p-AKT S473, total AKT) and Peggy Sue (p-BTK, p-IκBα S32, total IκBα), using procedures as described in Example 3B. Results were quantitated after determining the AUC for each group and normalized to DMSO vehicle control.
# p-AKT S473 = test: Western Blot / Peggy Sue in TMD8^R cells (Example 7); type: cell-based; conditions: idelalisib 420 nM, Compound B 320 nM
# Method: (§2) Idelalisib-resistant (TMD8^R) cell line and passage-matched Idelalisib-sensitive (TMD8^S) cell line were generated according to the procedure described in Example 5 above. To characterize the resistant cells, cell viability assays, RNASeq of multidrug resistance (MDR) family of ABC transporter genes (N=33), apoptosis assays, and phosphoprotein analysis were performed. Cell viability was measured using CellTiter-Glo, as described in Example 1A above. Western blot and protein level analysis were performed after treatment with 420 nM idelalisib, 320 nM Compound B and combination thereof, using Peggy Sue (ProteinSimple) automated Western Blot system. Protein concentration (pg/μL) was quantitated using recombinant protein standards. Normalized AUC were determined for each of the treatment groups, normalized to actin. Apoptosis was assessed by propidium iodide and Annexin V/FITC staining and measured by flow cytometry, as described in Example 1A above. Western Blot with anti-p-AKT (S473) antibody and Peggy Sue were used to determine the phosphorylation state of downstream signaling components.
# p-BTK = test: as above; type: cell-based; conditions: idelalisib 420 nM, Compound B 320 nM
# Method: as §2
# [1] = test system: A20 mutant (TNFAIP3 Q143*) TMD-8 cells; test: 96-hour Cell Titer Glo viability assay, Ibrutinib-resistant TMD-8; conditions: for EC50: Homo sapiens, TMD8, read-out: EC50, cell viability; for sensitivity in cell viability assay: TMD8^A20-Q143*, 96 h
# [2] = A20-Q143* line, normalized to DMSO control, DMSO 0.91
# [3] = control line, normalized to DMSO vehicle control
SMILES,% Annexin V+ (OCI-LY10 cells) [%],% Annexin V+ (TMD-8 cells) [%],pERK T202/Y204 (pERK T202/Y204; [2]),pERK T202/Y204 (pERK T202/Y204; [3]),p-AKT (p-AKT S473),p-BTK (p-BTK),EC50 [1] [µM],sensitivity in cell viability assay [1]
"CC#CC(=O)N1CC[C@@H](n2c(=O)n(-c3ccc(Oc4ccccc4)cc3)c3c(N)ncnc32)C1 [Compound B, 6-amino-9-[(3R)-1-(2-butynoyl)-3-pyrrolidinyl]-7-(4-phenoxyphenyl)-7,9-dihydro-8H-purin-8-one]",26,44,0.76,0.35,not,inhibited,> 10,resistant
"CCC(Nc1ncnc2[nH]cnc12)c1nc2cccc(F)c2c(=O)n1-c1ccccc1 (stereo not shown) [Idelalisib, 2-(1-((9H-Purin-6-yl)amino)propyl)-5-fluoro-3-phenylquinazolin-4(3H)-one]",25,45,0.73,0.13,inhibited,not,≥ 4.3,resistant
